Series [1] relates to rat hepatocytes. Kind of series: EMS-induced cytotoxicity (LDH leakage/cell death) in rat hepatocyte suspensions. To be noted: for Cell Death: 5 Hrs, alpha-TS 25, methyl ester 50, cholesteryl succinate 100, monomethyl/dimethyl succinate 250 μM; for Percent Cytoprotection / inhibition at 25 µM: 5 h; for inhibition at 25 µM: Rattus norvegicus, Hepatocyte. The procedure: To determine if alpha-TS is a cytoprotective agent under physiological conditions, liver cells were incubated with Waymouth's medium containing approximately 1 mM extracellular Ca^2+ in the presence and absence of alpha-TS.
(§1) At each time-point, rapid separation of viable from non-viable hepatocytes and medium was accomplished by the dibutyl phthalate centrifugation method. Cell viability was monitored hourly by measuring LDH leakage with a Cobas Analyzer and intracellular [K^+ ]with a flame photometer. LDH was routinely measured in the medium while intracellular K^+ was measured in the 10% perchloric acid lysate of viable cells. Lipid peroxidation was determined by measuring TBA reactants in the medium. […] The samples were diluted with 0.3 ml 1% ascorbate in 0.1 M SDS, 0.4 ml ethanol, sonicated and extracted once with 0.8 ml hexane. Next, the hexane extract was evaporated to dryness with N2, the residue dissolved in 2.5% ascorbate in methanol (1 ml) and analyzed (100 μl) by high-performance liquid chromatograph (HPLC). […] The mobile phase, 95% MeOH was run isocratically and the HPLC retention times for delta and alpha-tocopherol were approximately eleven and sixteen minutes, respectively. […] Following the addition of 0.2 ml 4 M HC1, the neutralized KOH-MeOH extracted with 0.8 ml hexane. […] A standard curve for each tocopherol congener was run with every assay. […] Only viable cells were monitored in the laboratory procedures.
To determine the relative cytoprotective potency of various tocopherol derivatives, the effect of varying doses of a tocopherol analog on the protection against EMS-induced toxicity was examined in vitro on rat hepatocyte suspensions. Specifically, the following ionizable tocopherol congeners were tested: alpha-TS, alpha tocopheryl glutarate (alpha-TG), and alpha tocopheryl phosphate (alpha-TP). […] 0.1 nmoles is the lower detection limit.
In vitro experiments were conducted with a variety of different tocopherol and succinate analogs to determine which were protective against EMS induced toxicity. After five hours of incubation with 50 mM EMS and 25μM of a tocopherol or succinate analog, cytoprotection was determined by comparing the percentage of LDH leakage from control hepatocytes (vehicle only, assumed 100% protection) with the EMS only treated cells (assumed 0% protection).
An in vitro experiment with rat hepatocyte suspensions was performed to determine the effect of esterase inhibitors on alpha-TS.
(§2) Rat hepatocyte suspensions were subjected to 50 mM EMS and the percentage of cell death, the percentage of intracellular K^+ (a metabolic parameter as discussed above), the depletion of ATP and the effect on lipid peroxidation were monitored.

In series [2] the test system is rat hepatocytes. Kind of series: EMS-induced lipid peroxidation in rat hepatocyte suspensions. The series is classed as cell-based. To be noted: 50 mM EMS, 5 Hrs; concentrations as cell death (Table 15). The protocol:
as §1, §2

The subject of series [3] is male Sprague-Dawley rats. Kind of series: CCl4 induced lethality in rats. The series is classed as in vivo, rat. To be noted: for Survival after CCl4 treatment: 100 mg/kg ip 24 h prior, […] CCl4 oral. The procedure:
The in vivo effect of alpha-TS was tested by administering a lethal oral dose of carbon tetrachloride (CC14) to male Sprague-Dawley rats.
In the experiment described in Table 3, a single dose of alpha-TS dissolved in peanut oil:ethanol (3:2) was given to male Sprague-Dawley rats. The dose was given 24 hours prior to an orally administered CCl4 challenge dissolved in peanut oil. Two to nine animals were tested per treatment. The control group comprised rats pretreated with the vehicle only. Survival was monitored for at least 7 days after the toxic insult.
In vivo experiments were performed to determine if the time the ionizable tocopherol analog (alpha-TS) is administered affects the cytoprotective functions. Male Sprague-Dawley rats were given a 100 mg/kg intraperitoneal dose of a tocopherol or succinate analog and were given a lethal dose of CCl4 (2.9g/kg by oral gavage). Table 7 contrasts the times of administration of the tocopherol or succinate analog and the times of administration of the lethal dose of CCl4 with the survival of the rats in the study (3to 6 rats per protective treatment).
Several tocopherol and succinate analogs were tested for CCl4 induced lethality. A single dose of the tocopherol or succinate analog was administered twenty four hours prior to orally administering 2.9 g CCl4 /kg body weight. Three to six animals were analyzed per treatment. The rats were monitored for seven days. […]

A short description of series [4]: Tissue distribution of alpha-tocopherol and alpha-tocopherol ester in rats. The series is classed as in vivo, rat. To be noted: K+ salt in saline, 1 dose 100 mg/kg, 24 h. The protocol:
100 mg/kg body weight of a tocopherol analog was administered to Sprague-Dawley rats using a peanut oil:ethanol vehicle (3:2). Twenty four hours later the rats were sacrificed and the accumulation of the tocopherol analog in the liver was determined.
A similar in vivo experiment to that discussed in conjunction with Table 5 was performed to determine if other tissues accumulate alpha-TS. Male Sprague-Dawley rats were given a 100 mg/kg dose of alpha-TS using a variety of chemical forms and vehicles. A variety of techniques were used to administer the alpha-TS. Twenty four hours later the rats were sacrificed and the tissues were tested for alpha-TS accumulation.

Series [5] relates to liver. Kind of series: CCl4 induced hepatotoxicity in rats (serum AST/ALT). The series is classed as in vivo, rat. The protocol:
In vivo experiments were performed to determine if alpha-TS administration protects the liver from chemical toxicity. The liver is the target organ for CCl4. CCl4 is a hepatotoxic agent that induces centrilobular liver necrosis through its metabolism to free radicals. Male Sprague-Dawley rats were given an intraperitoneal dose (100 mg/kg) of a tocopherol analog 24 hours prior to a CCl4 challenge (2.9g/kg given by oral garage). Forty eight hours after the challenge, the rats were sacrificed and the levels of aspartate aminotransferase (AST) and alanine aminotransferase (ALT) were measured.
As discussed above, SGOT levels provide a clinical assessment of hepatotoxicity (liver damage).
Succinate analogs were administered to male Sprague-Dawley rats 20 hours prior to a 1 g CCl4 /kg body weight oral challenge and the AST and ALT serum enzyme levels were measured 48 hours after the challenge.
Similar to the experiments were described above, the ionizable congeners were administered to Sprague-Dawley rats by i.p. injection of a 100 mg ionizable congener/kg body weight dose 20 hours prior to oral administration of a 1 g/kg dose of CCl4, and the AST and ALT levels were measured 48 hours after the CCl4 challenge.

[6] abbreviates: 1 g/kg, single dose 24 h prior, CCl4 […].
[7] abbreviates: 100 mg/kg, single dose 24 h prior, CCl4 […].
The mark [8] stands for this setting: read-out: Percent Cytoprotection, 25 μM, 50 mM EMS, 5 h.
The mark [9] stands for this setting: 100 mg/kg ip, 48 h after 1 g/kg CCl4 (Table 31).

Counter-ions that a name gives are not always drawn. Like-named read-outs stand apart in the source and are kept apart here.

In the case of `COC(=O)CCC(=O)O` [Monomethyl Succinate, reference compound], the “Cell Death” value in series [1] (50 mM EMS) was 61 ± 5%. Further, the “Lipid Peroxidation” value in series [2] came out at 12.8 ± 1.0 nmolMDA/10^6 cells. In addition, in series [3] (1 g/kg, 24 and 1 hour prior), the “Days Survived after CCl4” value worked out at 2 days. For the same molecule, the “Days Survived After CCl4 Treatment” value in series [3] (setting [6]) was found to be 2 days.

For `Cc1c(C)c2c(c(C)c1OC(=O)CCC(=O)O)CC[C@@](C)(CCC[C@H](C)CCC[C@H](C)CCCC(C)C)O2` [K + salt of Alpha-TS, Alpha-Tocopherol Succinate, K^+ Salt], in series [1] (25 μM, 50 mM EMS, K^+ Salt, 300 min, 25 µM), the “Percent Cytoprotection” value was found to be 97 ± 3%. The “Days Survived After CCl4 Treatment” value in series [3] (setting [7]) was > 7 days. For the same molecule, in series [4] ((c) ip), the “alpha-TS, Blood” value is 19 nmoles/gm of Tissue; the “alpha-TS, Heart” value is 18 nmoles/gm of Tissue; the “alpha-TS, Kidney” value was 15 nmoles/gm of Tissue; the “alpha-TS, Liver” value is given as 518 nmoles/gm of Tissue. Also, in series [4] ((c) ip), the “alpha-TS, Lung” value is listed as 60 nmoles/gm of Tissue and the “alpha-TS, Plasma” value is 24 nmoles/gm of Tissue. For the same molecule, in series [4] ((d) iv), the “alpha-TS, Blood” value is 18 nmoles/gm of Tissue; the “alpha-TS, Heart” value is on record as 24 nmoles/gm of Tissue; the “alpha-TS, Kidney” value was 27 nmoles/gm of Tissue; the “alpha-TS, Liver” value is 445 nmoles/gm of Tissue. Moreover, in series [4] ((d) iv), the “alpha-TS, Lung” value is given as 385 nmoles/gm of Tissue and the “alpha-TS, Plasma” value was 30 nmoles/gm of Tissue.

Consider `Cc1c(C)c2c(c(C)c1OC(=O)CCCC(=O)O)CCC(C)(CCCC(C)CCCC(C)CCCC(C)C)O2` (stereo not drawn) [Alpha-Tocopherol Glutarate, alpha-tocopherol monoglutarate], for which the inhibition at 25 µM in series [1] (setting [8]) came to 55 ± 15%. Further, the “Survival after CCl4 treatment” value in series [3] was “No”. In addition, the “Days Survived After CCl4 Treatment” value in series [3] (setting [7]) is 2 days.

Turning to `Cc1cc(OC(=O)CCC(=O)O)cc2c1OC(C)(CCCC(C)CCCC(C)CCCC(C)C)CC2` (stereo not shown) [Delta-Tocopherol Succinate, Delta-tocopherol mono succinate], the inhibition at 25 µM in series [1] (setting [8]) amounted to 70 ± 24%.

As for `Cc1cc(O)cc2c1OC(C)(CCCC(C)CCCC(C)CCCC(C)C)CC2` (stereo not shown) [Delta-Tocopherol, reference compound], the inhibition at 25 µM in series [1] (read-out: Percent Cytoprotection) stood at 0%.

As to `O=C(O)CCC(=O)O` [Succinic Acid, Na Salt, reference compound], the “Days Survived after CCl4” value in series [3] (1 g/kg, 24 hours or 1 hour prior and daily thereafter) was 2 days. Besides, the “Days Survived After CCl4 Treatment” value in series [3] (setting [6]) is 2 days.

As to `COC(=O)CCC(=O)OC` [Dimethyl Succinate, reference compound], the “Cell Death” value in series [1] (50 mM EMS) turned out to be 60 ± 1%. Also, the “Lipid Peroxidation” value in series [2] stood at 12.6 ± 0.2 nmolMDA/10^6 cells. For the same molecule, the “Days Survived after CCl4” value in series [3] (1 g/kg, 24 and 1 hour prior) was determined as 2 days. Also, the “Days Survived After CCl4 Treatment” value in series [3] (setting [6]) amounted to 2 days. In addition, the “cytoprotection (Table 7, in words)” value in series [3] (rat, in vivo) was “not cytoprotective”.

On to “d-alpha-tocopheryl polyethylene glycol 1,000 succinate”, for which the “Percent Cytoprotection” value in series [1] (25 μM, 50 mM EMS) was found to be 80 ± 15%. For the same molecule, the “protection from lethal effects of EMS” value in series [1] (rat hepatocytes, 25 μM, 50 mM EMS) is reported as “protection was observed against EMS-induced toxicity”. Also, the “Days Survived After CCl4 Treatment” value in series [3] (200 mg/Kg, iv, 24 h prior) is > 7 days; in series [3] (200 mg/kg, oral, 24 h prior) it was 2 days; in series [3] (100 or 200 mg/Kg, single dose 24 h prior), > 7 days.

For the molecule `Cc1c(C)c2c(c(C)c1OC(=O)CC(C)C(=O)O)CC[C@@](C)(CCC[C@H](C)CCC[C@H](C)CCCC(C)C)O2` (stereo partly drawn) [Alpha-Tocopherol 3-Methyl Succinate, alpha-tocopheryl 3-methyl succinate], in series [1] (setting [8]), the inhibition at 25 µM is 70 ± 9%. Further, the “Survival after CCl4 treatment” value in series [3] is given as “No”. The “Days Survived After CCl4 Treatment” value in series [3] (setting [7]) came to 2 days.

Regarding `Cc1c(C)c2c(c(C)c1OC(=O)CCC(N)=O)CC[C@@](C)(CCC[C@H](C)CCC[C@H](C)CCCC(C)C)O2` [Alpha-Tocopherol Succinamide], in series [1] (setting [8]), the inhibition at 25 µM is 0%.

`CC(C)CCC[C@@H](C)[C@H]1CC[C@H]2[C@@H]3CC=C4C[C@@H](O)CC[C@]4(C)[C@H]3CC[C@]12C` [Cholesterol, reference compound]: the inhibition at 25 µM in series [1] (setting [8]) came out at 30 ± 16%. Moreover, the “Survival after CCl4 treatment” value in series [3] is on record as “No”. For the same molecule, in series [3] (setting [7]), the “Days Survived After CCl4 Treatment” value stood at 2 days. In series [5] (setting [9]), the ALT is 1.16 ± 0.41 10^3 units/L and the AST is on record as 3.03 ± 0.84 10^3 units/L. The “SGOT Levels” value in series [5] (100 mg/kg ip, 48 h after 1.0 g/kg CCl4) is on record as 4.08 ± 2.45 10^3 units/L. For the same molecule, the “protection against CCl4 hepatotoxicity (in words)” value in series [5] (rats, serum enzyme levels) is listed as “provided no protection”.

The values are drawn from patent US5336485A, “Method for protecting animals against tacrine induced cytotoxic injury using sterol compounds” (priority 1993, dated 1994).
